From PubChem BioAssay AID1996
In brackets after ≈: the same amount, converted by molar mass.

Conditions: buffer; pH 7.4; 200.0 µM

SMILES	solubility kinetic
CN1C2=C(C(=O)CC(C)(C)C2)C(c2cccs2)C2=C1CC(C)(C)CC2=O	0.0326 mg/mL (≈ 88.2 µM)
Cc1ccc(C2SCC(=O)N2c2ccccc2)cc1 (stereo not drawn)	> 0.0404 mg/mL
O=C(CCSCc1ccccc1F)NCCc1ccccc1	0.0178 mg/mL (≈ 56.1 µM)
Cn1c(N2CCOCC2)cc(=O)n(C)c1=O	0.0293 mg/mL (≈ 130 µM)
CCOc1ccccc1C1CC(=O)Nc2cc(C)c(C)cc21 (stereo not drawn)	< 0.0006 mg/mL
Cc1ccc(SCCC(=O)N/N=C/c2cccnc2)cc1	> 0.0449 mg/mL
Cc1ccc(S(=O)(=O)NC(=O)Nc2ccc(OC(F)F)cc2)cc1	0.0523 mg/mL (≈ 147 µM)
Cc1[nH]c2ccccc2c1C(=O)C(=O)N1CCC2(CC1)OCCO2	> 0.0493 mg/mL
CC1(C)C2SCC(=O)N2CCN1CC(=O)NN (stereo not drawn)	> 0.0388 mg/mL
Nc1c(Br)c(=O)[nH]c(=O)n1-c1ccc(F)cc1	0.0253 mg/mL (≈ 84.3 µM)
Cc1cnc([N+](=O)[O-])n1CCOC(=O)NC(=O)c1ccc(F)cc1	> 0.0504 mg/mL
Cc1cc(Br)c(NC(=O)COC(=O)C2CCCCC2)c(Br)c1	0.0101 mg/mL (≈ 23.3 µM)
COc1ccccc1CNC(=O)COC(=O)Cc1cccs1	> 0.0479 mg/mL
Cc1cccc(NC(=O)NNC(=O)c2ccccn2)c1	> 0.0405 mg/mL
c1ccc(CCNCC2COc3ccccc3O2)cc1 (stereo not drawn)	> 0.0404 mg/mL
Cc1ccc(CNC(=O)CN2C(=O)c3ccccc3S2(=O)=O)cc1	0.0125 mg/mL (≈ 36.3 µM)
Cc1cc(C)cc(N2C(=O)CN(Cc3ccccc3)C2=S)c1	0.0041 mg/mL (≈ 13.2 µM)
Cc1cc(=O)n2c3ccccc3n(C)c2n1	> 0.032 mg/mL
COc1cc(NS(=O)(=O)c2ccc(NC(=S)NC(C)=O)cc2)nc(OC)n1	> 0.0617 mg/mL
O=C(Nc1ccc(Nc2ccccc2)cc1)c1cccc(F)c1	0.0008 mg/mL (≈ 2.61 µM)
Oc1ccccc1N1CCN(C(c2ccccc2)c2ccccc2)CC1	0.0004 mg/mL (≈ 1.16 µM)
CCC1CCCCN1Cc1ccc(N)cc1 (stereo not drawn)	> 0.0328 mg/mL

SMILES	solubility kinetic
O=C(COC(=O)c1cccnc1Cl)NCCC1=CCCCC1	> 0.0484 mg/mL
Cc1ccc(NC(=O)CNC(=O)c2ccco2)cc1Cl	0.007 mg/mL (≈ 23.9 µM)
C=CCNC(=O)c1cc2c(=O)n3cccc(C)c3nc2s1	0.0034 mg/mL (≈ 11.4 µM)
N#Cc1ccc(OCC(=O)Nc2ccc3[nH]c(=O)[nH]c3c2)cc1	0.0073 mg/mL (≈ 23.7 µM)
CCOn1c(=O)c(-c2ccc(Br)cc2)[n+]([O-])c2ccccc21	0.0013 mg/mL (≈ 3.6 µM)
Clc1ccc(Cn2ccc3ccccc32)cn1	0.0264 mg/mL (≈ 109 µM)
O=C(NC1CCCCCCC1)c1ccc(Br)o1	0.0372 mg/mL (≈ 124 µM)
CSc1ccc(Cl)c(C(=O)Nc2ccc(Cl)cn2)c1	0.0005 mg/mL (≈ 1.6 µM)
O=C(O)CSc1nc2ccccc2n1-c1ccccc1	> 0.0426 mg/mL
Cc1cccc(NC(=O)c2cccc(C(=O)Nc3cccc(C)c3)n2)c1	< 0.0002 mg/mL
COc1cccc(OC)c1C(=O)Nc1ccncc1	0.019 mg/mL (≈ 73.6 µM)
Cc1oc(-c2ccoc2)nc1CN(CC1CCC(=O)N1)C(C)C (stereo not drawn)	0.0388 mg/mL (≈ 122 µM)
Cc1ccnc(NCc2ccc(Cl)cc2)c1	0.0037 mg/mL (≈ 15.9 µM)
CC(=O)Nc1ccc(C(=O)OCC(=O)N(C)C2CCCCC2)cc1	0.036 mg/mL (≈ 108 µM)
O=C(CCNc1ccccc1)c1cccc([N+](=O)[O-])c1	0.0327 mg/mL (≈ 121 µM)
O=C(NCc1nc(-c2ccc(C(F)(F)F)cc2)no1)Nc1ccc(F)cc1F	0.0011 mg/mL (≈ 2.76 µM)
COc1ccc(Br)cc1C(=O)Nc1ccccc1N1CCCC1	< 0.0004 mg/mL
Cc1ccc(C(=O)CCC(=O)Nc2cc(C)ccn2)cc1	0.0062 mg/mL (≈ 22 µM)
Cc1ccc(C(=O)NC(C)C2CC3CCC2C3)c(C)c1 (stereo not drawn)	0.0299 mg/mL (≈ 110 µM)
COc1ccc2nc(NC(=O)c3ccccc3O)sc2c1	0.0007 mg/mL (≈ 2.33 µM)
Fc1cccc(NC(=S)NC2CCCCCCC2)c1	0.0029 mg/mL (≈ 10.3 µM)
COc1ccc(N2CCN(C(=O)COC(=O)c3cccc(OC)c3O)CC2)cc1	0.0072 mg/mL (≈ 18 µM)

SMILES	solubility kinetic
NC(=O)c1ccsc1NC(=O)COC(=O)CCOc1ccccc1	0.0169 mg/mL (≈ 48.5 µM)
O=C(c1cc(-c2ccccc2O)on1)N1CCCCCC1	0.0026 mg/mL (≈ 9.08 µM)
Cc1ccc(OCCC(=O)Nc2ccc(C)c(F)c2)cc1	0.0014 mg/mL (≈ 4.87 µM)
O=C(COC(=O)/C=C/c1ccc(Cl)cc1)NC1CCCC1	0.0035 mg/mL (≈ 11.4 µM)
N#Cc1cnc(Oc2ccc(Cl)cc2)nc1N	0.0043 mg/mL (≈ 17.4 µM)
Cn1cccc1C(=O)/C(C#N)=C/c1ccc(F)cc1	0.0363 mg/mL (≈ 143 µM)
O=C(CCNc1cccc(F)c1)c1cc2ccccc2o1	< 0.0006 mg/mL
CC(C)c1ccc(NC(=S)Nc2cccc3ccccc23)cc1	0.0018 mg/mL (≈ 5.62 µM)
CC(C)(C)NC(=O)C1CC(=O)N(CCc2ccc(F)cc2)C1 (stereo not drawn)	> 0.046 mg/mL
CC1CN=C(NCc2ccccc2Cl)S1 (stereo not drawn)	> 0.0361 mg/mL
CC1CN(c2nc(Nc3ccccc3)nc(N)c2[N+](=O)[O-])CC(C)O1 (stereo not drawn)	0.0481 mg/mL (≈ 140 µM)
CC(C)(C)C1CCC(OC(=O)CN2CCCCC2)CC1 (stereo not drawn)	0.0024 mg/mL (≈ 8.53 µM)
Cc1cccc(N(CC(=O)N2CCCCCC2)S(C)(=O)=O)c1	> 0.0487 mg/mL
CCCC(=O)N1CCC(CCC(=O)NC2CC2)CC1	> 0.04 mg/mL
CC(C)NS(=O)(=O)c1ccc(NC(=O)Cc2ccsc2)cc1	> 0.0508 mg/mL
Cc1ccc(/C=[N+](\[O-])c2ccccc2C)o1	0.0222 mg/mL (≈ 103 µM)
CCOC(=O)c1c(Cc2ccccc2)c[nH]c1C	0.0309 mg/mL (≈ 127 µM)
N#Cc1c(NCCO)ccc([N+](=O)[O-])c1NCCO	> 0.0399 mg/mL
CCN1C(=O)CCCc2ccccc21	> 0.0284 mg/mL
Cc1ccc(CN2CC(C(=O)N(C)CC(=O)Nc3cccc(F)c3)CC2=O)cc1 (stereo not drawn)	0.0462 mg/mL (≈ 116 µM)
Cc1cc(Cl)ccc1OCCCC(=O)OCC(N)=O	0.0423 mg/mL (≈ 148 µM)
O=C(CSc1ccccn1)NCc1ccc2c(c1)OCO2	> 0.0454 mg/mL

SMILES	solubility kinetic
O=C(CSc1ncccn1)Nc1cc(Cl)ccc1[N+](=O)[O-]	0.0047 mg/mL (≈ 14.5 µM)
CCCCOC(=O)C1=C(C)NC(=O)NC1c1ccc(N(C)C)cc1 (stereo not drawn)	0.0017 mg/mL (≈ 5.13 µM)
CCN1C(=O)c2cccc3c(S(=O)(=O)N4CCNCC4)ccc1c23	> 0.0518 mg/mL
CCOC(=O)C1=C(C)N(CC(C)C)C(=O)/C1=C\c1cccs1	< 0.0007 mg/mL
COc1cccc(C(O)c2cnc(C(C)C)n2C)c1 (stereo not drawn)	> 0.0391 mg/mL
Cc1ccccc1NC(=O)C1CC(=O)OC12CCOC(C)(C)C2 (stereo not drawn)	> 0.0476 mg/mL
Cc1cccc(Nc2nc(Cl)ncc2F)c1C	0.0053 mg/mL (≈ 21.1 µM)
O=C(Nc1cc(Cl)ccc1N1CCOCC1)C1CC1	> 0.0421 mg/mL
Cc1ccc2c(c1)CCCN2C(=O)c1cc(C)c(C)s1	0.0039 mg/mL (≈ 13.7 µM)
NC(=O)c1c(NC(=O)c2ccc(F)cc2Cl)sc2c1CCC2	0.001 mg/mL (≈ 2.95 µM)
O=C1NC(=O)C(Cc2c[nH]c3ccccc23)N1 (stereo not drawn)	> 0.0344 mg/mL
Cc1nccn1Cc1ccccc1	0.0247 mg/mL (≈ 143 µM)
CCOc1ccc(NC(=O)CSc2nncn2C)cc1	> 0.0439 mg/mL
O=C(Nc1sc2c(c1C(=O)O)CCCCC2)c1cccnc1	> 0.0475 mg/mL
CCc1ccc(NC(=O)c2ccccc2SC)cc1	0.0024 mg/mL (≈ 8.84 µM)
O=C(Nc1ccc(Cl)c([N+](=O)[O-])c1)c1ccc2c(c1)OCCO2	< 0.0004 mg/mL
COCC(=O)N(Cc1cc2cc(C)ccc2[nH]c1=O)c1cccc(C)c1C	0.0123 mg/mL (≈ 33.7 µM)
CC1(C)C(C=C(Cl)Cl)C1C(=O)NC(O)C(=O)c1ccccc1 (stereo not drawn)	0.0108 mg/mL (≈ 31.6 µM)
CCN(Cc1ccncc1)C(=O)c1cccc(S(=O)(=O)N2CCCCC2)c1	> 0.0581 mg/mL
O=C(COC(=O)/C=C/c1cccs1)Nc1ccc(F)cc1	0.0084 mg/mL (≈ 27.5 µM)
CCC(=O)Nc1cc2c3c(c1)CCC(=O)N3CCC2	> 0.0387 mg/mL
COCC(C)N=C1SCCN1Cc1ccccc1 (stereo not drawn)	0.0353 mg/mL (≈ 134 µM)
